Key:
[1] = Plasma pharmacokinetics in mice; format: in vivo; conditions: mouse, po, single dose 120 mg/kg by gavage
Protocol: Plasma pharmacokinetic analysis of sphingolipid-like compound 893 was performed by Pharmaron Corporation (Beijing, China). C16:0 ceramide levels were quantified in cells using the method described in (T. Kasumov, et al., Anal. Biochem. 401: 154-161, 2010, the disclosure of which is incorporated herein by reference) with minor modifications. Cultured cells were washed twice in PBS and scraped into 250 μL of HPLC grade water and flash frozen until time of analysis. On the day of analysis, samples were thawed, and an aliquot used for protein quantification. For C16:0 ceramide levels in mouse liver, 25 mg of tissue was homogenized in 1 ml of ice-cold PBS using a mechanical probe homogenizer (VWR, Radnor, Pa.), protein levels quantified, and 50 μl of the homogenate diluted with 150 μl HPLC-grade water for C16:0 ceramide analysis. […] Samples were analyzed by ultra-performance liquid chromatography tandem mass spectrometry (UPLC-MS/MS) using a Waters Micromass Quattro Premier XE equipped with a Waters ACQUITY BEH C4 column (Waters Corp.). […] Standard curves prepared from C16:0 ceramide (#860516, Avanti Polar Lipids, Alabaster, Ala.) dissolved in ethanol were used for quantitation and were linear from 4.1 nM-1,000 nM, with an R^2 of 0.98 or greater.

[2] = system: AKT; conditions: cited from earlier work
[3] = system: DRP1; assay: DRP1 recruitment to mitochondria (DRP1/citrate synthase co-localization) and DRP1 western blot; format: cell-based, mouse; conditions: MEFs
Protocol: Mature adipocytes were serum starved for 16 h then treated with vehicle, ceramide (50 or 100 μM), or sphingolipid-like compound 893 (5 or 10 μM) in serum-free media supplemented with 0.2% fatty-acid free BSA for 3 h after which 100 nM insulin was added for 15 min. To determine total DRP1 protein levels, 100,000 MEFs were seeded into a 6-well plate for 16 h, pre-treated for 3 h with vehicle or sphingolipid-like compound 893 (5 μM) followed by a 3 h incubation in 1% BSA+ethanol or BSA-palmitate (250 μM). Cells were washed once with cold PBS, then lysed in cold RIPA buffer (140 mM NaCl, 10 mM Tris pH 8.0, 1% Triton X-100, 0.1% SDS, 1% sodium deoxycholate) with cOmplete™ protease inhibitor (Cat no. 11697498001, Millipore Sigma, St. Louis, Mo.) and phosSTOP™ phosphatase inhibitor (Cat no. 4906837001, Millipore Sigma). Samples were incubated on ice for 10 min and insoluble material removed by centrifugation (9000×g for 10 min at 4° C.). Protein content was quantified in the supernatant using the Pierce™ BCA Protein Assay Kit (Thermo-Fisher Scientific, Waltham, Mass.). Equal amounts of protein were prepared in NuPAGE® LDS Sample Buffer (NP0007, Invitrogen) containing 50 mM DTT, and heated at 70° C. for 10 min. Proteins were resolved on a NuPAGE® 4-12% Bis-Tris protein gel (NP0336, Invitrogen, Carlsbad, Calif.) and subsequently transferred to a nitrocellulose membrane. Membranes were blocked in 5% BSA in TBST for 1 h, then probed with primary antibodies overnight at 4° C. […] Band intensity was quantified using Image Studio Lite V5.2 software (Li-COR).
MEFs were washed twice with PBS and fixed with 4% paraformaldehyde for 10 min at RT. […] NADH/NADPH autofluorescence was detected with 740 nm excitation and 450±50 nm detectors using a Mai Tai two-photon laser. Fluorescence microscopy was performed on a Zeiss LSM 780 confocal using a 63× oil objective with a […] numerical aperture (NA) or using a Nikon TE2000-S inverted epifluorescence microscope with a 100× oil objective (1.3 NA) and a Photometrics CoolSNAP ES2 monochrome CCD camera. […]

CCCCCCCCc1ccc([C@H]2CCN[C@@H]2CO)cc1.Cl [compound 893]
Tmax [1]: 4 h
half-life [1]: 10.6 h
Effect on AKT activity [2]: does not reduce AKT activity
DRP1 recruitment to mitochondria in response to palmitate ([3]; 893 5 μM or YM201636 800 nM 3 h, then palmitate 250 μM 3 h): prevented the recruitment of the GTPase that mediates fission, DRP1, to mitochondrial membranes
DRP1 protein expression levels ([3]; 893 5 μM, palmitate 250 μM, western blot): without affecting DRP1 protein expression levels

— patent US20220409617A1, “Drug Formulations and Methods of Treatment for Metabolic Disorders” (The Regents of the University of California, priority 2019, published 2022)
